Results on 3 molecules are retold here after PubChem BioAssay AID1963420 (Molecular Pharmacology Branch, DTP, NCI, 2024).

Each structure is given as a SMILES string. “And” between values parts separate entries of the source, which are not always exact repeats. Equal values may be shown once. Bounds are passed on as bounds.

The assay has as its system 494315-158-R-J1-PDC complex spheroid growth, percent test/control. As to the kind of experiment: Anticancer human tumor 494315-158-R-J1-PDC patient-derived soft tissue sarcoma cell line growth inhibition [Asc]. The following applies: for viability, T/C: stronger effect = lower value. An outline of the steps:
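Tumor cells were grown as complex spheroids with human endothelial cells (HUVEC) and human mesenchymal stem cells as stroma. Agents were tested alone and in combination, in half-log steps down from the clinical Cmax, or from 10 microM where Cmax was unknown.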
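Further: compound exposure lasted seven days after spheroids formed for three days.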

Broadly, the IC50 is the concentration that inhibits the measured activity by half. As a reminder, the viability, T/C is the ratio of treated to control. Regarding `CCN1CCN(Cc2ccc(Nc3ncc(F)c(-c4cc(F)c5nc(C)n(C(C)C)c5c4)n3)nc2)CC1` + CNC(C)C(=O)NC1CN(S(=O)(=O)c2cccc(S(=O)(=O)N3CCC4CCC(C(=O)NC(c5ccccc5)c5ccccc5)N4C(=O)C(NC(=O)C(C)NC)C3)c2)CCC2CCC(C(=O)NC(c3ccccc3)c3ccccc3)N2C1=O, the IC50 was > 1000 nM (curve of first compound, second compound 0.01 µM); > 1000 nM (curve of first compound, second compound 0.0316 µM); > 1000 nM (curve of first compound, second compound 0.1 µM); < 3.16 nM (curve of first compound, second compound 0.316 µM); < 3.16 nM (curve of first compound, second compound 1 µM). In addition, the viability, T/C reads like this: (second compound 0.01 µM, first compound 0.00316 µM) 77.8%; (second compound 0.01 µM, first compound 0.01 µM) 81.6%; (second compound 0.01 µM, first compound 0.0316 µM) 67%; (second compound 0.01 µM, first compound 0.1 µM) 64.4%; (second compound 0.01 µM, first compound 0.316 µM) 67.5%; (second compound 0.01 µM, first compound 1 µM) 63.8%. Further, the viability, T/C was 56.8% (second compound 0.0316 µM, first compound 0.00316 µM); 63.9% (second compound 0.0316 µM, first compound 0.01 µM); 68.7% (second compound 0.0316 µM, first compound 0.0316 µM); 52.2% (second compound 0.0316 µM, first compound 0.1 µM); 57.2% (second compound 0.0316 µM, first compound 0.316 µM); 53.4% (second compound 0.0316 µM, first compound 1 µM). Further, the viability, T/C reads like this: (second compound 0.1 µM, first compound 0.00316 µM) 55.6%; (second compound 0.1 µM, first compound 0.01 µM) 57.4%; (second compound 0.1 µM, first compound 0.0316 µM) 48.9%; (second compound 0.1 µM, first compound 0.1 µM) 58.4%; (second compound 0.1 µM, first compound 0.316 µM) 57.4%; (second compound 0.1 µM, first compound 1 µM) 48.9%. The viability, T/C (second compound 0.316 µM, first compound 0.00316 µM) is 51.5%; the viability, T/C (second compound 0.316 µM, first compound 0.01 µM) was 46.4%; the viability, T/C (second compound 0.316 µM, first compound 0.0316 µM) is 50.2%; the viability, T/C (second compound 0.316 µM, first compound 0.1 µM) is 43.4%; the viability, T/C (second compound 0.316 µM, first compound 0.316 µM) is 51.3%; the viability, T/C (second compound 0.316 µM, first compound 1 µM) is 52.5%. Also, the viability, T/C is 36.3% (second compound 1 µM, first compound 0.00316 µM); 39.7% (second compound 1 µM, first compound 0.01 µM); 44.4% (second compound 1 µM, first compound 0.0316 µM); 41.8% (second compound 1 µM, first compound 0.1 µM); 45.3% (second compound 1 µM, first compound 0.316 µM); 48.5% (second compound 1 µM, first compound 1 µM).
Take `CNC(C)C(=O)NC1CN(S(=O)(=O)c2cccc(S(=O)(=O)N3CCC4CCC(C(=O)NC(c5ccccc5)c5ccccc5)N4C(=O)C(NC(=O)C(C)NC)C3)c2)CCC2CCC(C(=O)NC(c3ccccc3)c3ccccc3)N2C1=O` (stereo not drawn): the viability, T/C (compound 0.00316 µM) was 79% and 74.7%; the viability, T/C (compound 0.01 µM) is 69.1% [middle of 15 runs]; the viability, T/C (compound 0.0316 µM) was 58.5% [middle of 15 runs]; the viability, T/C (compound 0.1 µM) was 51.9% [middle of 15 runs]; the viability, T/C (compound 0.316 µM) was 45% [middle of 15 runs]; the viability, T/C (compound 1 µM) is 39.2% [middle of 15 runs]. Moreover, the IC50 (curve of compound) is 46.1 nM and 28.9 nM.
`Cc1c(S(C)(=O)=O)c(-c2cc(F)cc(N3CCN(c4ccc(NS(=O)(=O)c5ccc(NC(CCN6CCC(C(=O)OCCCP(=O)(O)O)CC6)CSc6ccccc6)c(S(=O)(=O)C(F)(F)F)c5)cc4)CC3)c2)c(-c2ccc(Cl)cc2)n1C(C)C` (stereo not drawn): the viability, T/C (compound 0.1 µM) is 77.8% [middle of 14 runs]; the viability, T/C (compound 0.316 µM) is 71.6% [middle of 14 runs]; the viability, T/C (compound 1 µM) is 65% [middle of 14 runs]; the viability, T/C (compound 3.16 µM) is 52.8% [middle of 14 runs]; the viability, T/C (compound 10 µM) is 73.2% [middle of 14 runs]. Further, the IC50 (compound alone, run of 09/27/2022) was > 10000 nM.
